Reference: the supplement of paper PMC11208160

Assay: recombinant barcode read abundance after kanamycin selection (control-corrected) (log10(CPM+1)); higher = more efficient recombination; sequences stand for … in AGTGCAGAGAAAATCGGCCAGTTTTCTCTGCCTGCAGTCCGCATGCCGT…AGATTTATGCAGCGGACTGCCTTTCTCCCAAAGTGATAAACCGGACAGTATCATGGACCGGTTTTCCCGGTAATCCGTATTTGCAAGGTTGGTTTCACT; site = the 11-nt target
Method in brief: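 Recombination efficiency draws on barcodes counted at recombinant junctions in a pooled E. coli screen of targets paired with IS621 bridge RNA target-binding loops. The counts were converted to counts per million, averaged and corrected against the chloramphenicol/ampicillin LB agar control, then reported as log10(CPM+1). Selection plates held chloramphenicol/ampicillin/kanamycin with 0.1 mM IPTG, with two replicates per condition.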
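Note: IS621 recombinase and bridge RNA in Escherichia coli cells.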

Sequence | recombinant barcode read abundance (log10)
GAAGGGACTTGGGTTCTAACCTGTTGCCT (site GCAGGGACTAG) | 0.236
GAAGGGACTTGGGTTCTAACCTGTTGCCT (site GGAGGGACTAG) | 0.585
GAAGGGACTTGGGTTCTAACCTGTTGCCT (site GTAGGGACTAG) | 1.52
GAAGTCGCTTGGGTTCTAACCTGTTGCCT (site GAAGACGCTAG) | 0.187
GAAGTCGCTTGGGTTCTAACCTGTTGCCT (site GAAGCCGCTAG) | 0.508
GAAGTCGCTTGGGTTCTAACCTGTTGCCT (site GAAGGCGCTAG) | 0
GAAGTCGCTTGGGTTCTAACCTGTTGCCT (site GAAGTCGCTAG) | 1.78
GAATATTCTTGGGTTCTAACCTGTTGCCT (site GAATATTCTAG) | 0.739
GAATATTCTTGGGTTCTAACCTGTTGCCT (site GACTATTCTAG) | 0.0547
GAATATTCTTGGGTTCTAACCTGTTGCCT (site GAGTATTCTAG) | 0.136
GAATATTCTTGGGTTCTAACCTGTTGCCT (site GATTATTCTAG) | 0.27
GAATGTCCTTGGGTTCTAACCTGTTGCAT (site GAATGTCCTAT) | 1.39
GAATGTCCTTGGGTTCTAACCTGTTGCAT (site GCATGTCCTAT) | 0.0491
GACAATGCTTGGGTTCTAACCTGTTGCAT (site ACGTGGACTTA) | 0.229
GACAATGCTTGGGTTCTAACCTGTTGCAT (site GACAATGCTAT) | 0.105
GACACAACTTGGGTTCTAACCTGTTGCCA (site CGGCTCCCTAA) | 0.208
GACACAACTTGGGTTCTAACCTGTTGCCA (site GACACAACTTG) | 0.018
GACACGCCTTGGGTTCTAACCTGTTGCCT (site GACACGCCTAA) | 0.301
GACACGCCTTGGGTTCTAACCTGTTGCCT (site GACACGCCTAC) | 0.0669
GACACGCCTTGGGTTCTAACCTGTTGCCT (site GACACGCCTAG) | 0.156
GACACGCCTTGGGTTCTAACCTGTTGCCT (site GACACGCCTAT) | 0.146
GACACGCCTTGGGTTCTAACCTGTTGCGT (site GACACGCCTAA) | 0.205
GACACGCCTTGGGTTCTAACCTGTTGCGT (site GACACGCCTAC) | 0.571
GACACGCCTTGGGTTCTAACCTGTTGCGT (site GACACGCCTAG) | 0.156
GACACGCCTTGGGTTCTAACCTGTTGCGT (site GACACGCCTAT) | 0.147
GACACGTCTTGGGTTCTAACCTGTTGCCT (site GACACCTCTAA) | 0

Sequence | recombinant barcode read abundance (log10)
GACACGTCTTGGGTTCTAACCTGTTGCCT (site GACACGTCTAG) | 0.534
GACAGGACTTGGGTTCTAACCTGTTGCCT (site AACACGACTAG) | 0.196
GACAGGACTTGGGTTCTAACCTGTTGCCT (site GACAGGACTAG) | 1.32
GACATCACTTGGGTTCTAACCTGTTGCCT (site GACATCACTAG) | 0.767
GACATCACTTGGGTTCTAACCTGTTGCCT (site GACATCCCTAG) | 0.0352
GACATCACTTGGGTTCTAACCTGTTGCCT (site GACATCGCTAG) | 0.192
GACATCACTTGGGTTCTAACCTGTTGCCT (site GACATCTCTAG) | 0.0671
GACATCCCTTGGGTTCTAACCTGTTGCCT (site GACATCACTAG) | 0.045
GACATCCCTTGGGTTCTAACCTGTTGCCT (site GACATCCCTAG) | 1.45
GACATCCCTTGGGTTCTAACCTGTTGCCT (site GACATCGCTAG) | 0.0465
GACATCCCTTGGGTTCTAACCTGTTGCCT (site GACATCTCTAG) | 0.142
GACATCTCTTGGGTTCTAACCTGTTGCCT (site GACATCACTAG) | 0.105
GACATCTCTTGGGTTCTAACCTGTTGCCT (site GACATCCCTAG) | 0.00568
GACATCTCTTGGGTTCTAACCTGTTGCCT (site GACATCGCTAG) | 0.0954
GACATCTCTTGGGTTCTAACCTGTTGCCT (site GACATCTCTAG) | 1.19
GACCGAGCTTGGGTTCTAACCTGTTGCCT (site GACCGAGCTAG) | 1.33
GACCGAGCTTGGGTTCTAACCTGTTGCCT (site GACCGCGCTAG) | 0.0201
GACCGAGCTTGGGTTCTAACCTGTTGCCT (site GACCGGGCTAG) | 0.145
GACCGAGCTTGGGTTCTAACCTGTTGCCT (site GACCGTGCTAG) | 0.345
GACCGTCCTTGGGTTCTAACCTGTTGCGT (site GACCGTCCTAA) | 0.306
GACCGTCCTTGGGTTCTAACCTGTTGCGT (site GACCGTCCTAC) | 2.65
GACCGTCCTTGGGTTCTAACCTGTTGCGT (site GACCGTCCTAG) | 0.573
GACCGTCCTTGGGTTCTAACCTGTTGCGT (site GACCGTCCTAT) | 1.14
GACCTGGCTTGGGTTCTAACCTGTTGCCG (site GACCTGACTTG) | 0.176
GACCTGGCTTGGGTTCTAACCTGTTGCCG (site GACCTGGCTCG) | 0.886
GACGCAACTTGGGTTCTAACCTGTTGCAT (site GACGCAACTAT) | 0.0836

Sequence | recombinant barcode read abundance (log10)
GACGCAACTTGGGTTCTAACCTGTTGCAT (site GACGCTTCTAT) | 0.0419
GACGCCACTTGGGTTCTAACCTGTTGCCT (site AACGCCACTAG) | 0.162
GACGCCACTTGGGTTCTAACCTGTTGCCT (site GACGCCACTAG) | 0.425
GACGCCTCTTGGGTTCTAACCTGTTGCCT (site AACGCCTCTAG) | 0.227
GACGCCTCTTGGGTTCTAACCTGTTGCCT (site CACGCCTCTAG) | 0.202
GACGCCTCTTGGGTTCTAACCTGTTGCCT (site GACGCCTCTAG) | 0.47
GACGCCTCTTGGGTTCTAACCTGTTGCCT (site TACGCCTCTAG) | 0
GACGCCTCTTGGGTTCTAACCTGTTGCGC (site GACGCCTCTGC) | 2.25
GACGCCTCTTGGGTTCTAACCTGTTGCGC (site TTGAAACCTAG) | 0.26
GACGGACCTTGGGTTCTAACCTGTTGCTA (site ATAACGGCTAG) | 0.0648
GACGGACCTTGGGTTCTAACCTGTTGCTA (site GACGGACCTTA) | 1.26
GACGGATCTTGGGTTCTAACCTGTTGCCT (site GACGGATCTAA) | 0.842
GACGGATCTTGGGTTCTAACCTGTTGCCT (site GACGGATCTAC) | 0.101
GACGGATCTTGGGTTCTAACCTGTTGCCT (site GACGGATCTAG) | 0.212
GACGGATCTTGGGTTCTAACCTGTTGCCT (site GACGGATCTAT) | 0.0859
GACGGCACTTGGGTTCTAACCTGTTGCGG (site GACGGCACTCC) | 2.56
GACGGCACTTGGGTTCTAACCTGTTGCGG (site TCTCATGCTAT) | 0.166
GACGGCTCTTGGGTTCTAACCTGTTGCCT (site GACGGCTCTAG) | 1.3
GACGGCTCTTGGGTTCTAACCTGTTGCCT (site GCCGGCTCTAG) | 0.365
GACGGGGCTTGGGTTCTAACCTGTTGCAG (site GACGGAGCTCA) | 0.753
GACGGGGCTTGGGTTCTAACCTGTTGCAG (site GACGGGGCTCT) | 2.59
GACGTACCTTGGGTTCTAACCTGTTGCCT (site GACATACCTAG) | 0.428
GACGTACCTTGGGTTCTAACCTGTTGCCT (site GACCTACCTAG) | 0.133
GACGTACCTTGGGTTCTAACCTGTTGCCT (site GACGTACCTAG) | 1.31
GACGTACCTTGGGTTCTAACCTGTTGCCT (site GACTTACCTAG) | 0.0104
